Structures are written as SMILES.

Assay type in all cases: cell-based
Experiment [1] deals with α-synuclein aggregate. The experiment in a line: Test 2: suppressing the accumulation of α-synuclein aggregate in neurospheroid from PLA2G6 mutant human iPS cells. The conditions noted are these: compound added day 4, measured day 9, DMSO = 100%; for activity at 0.1 µM: 100 nM, read-out: Amount of aggregate (%) 100 nM; for activity at 1 µM: 1000 nM, read-out: Amount of aggregate (%) 1000 nM. The protocol:
Test 2: Evaluation of Suppressing the Accumulation of α-Synuclein Aggregate with Neurospheroid Prepared from Human iPS Cells with a Mutation in PLA2G6 Gene
(§1) (1) Induction of Differentiation from Human iPS Cell to Neural Cell
Neural stem cells were induced from PLA2G6 gene mutant iPS cells with PSC Neuronal Induction Medium (Thermo Fisher Scientific Inc., cat #A1647801). Neurospheroid was prepared from the induced neural stem cells by three-dimensional culture system, and preserved with BrainPhys Neuronal Medium (STEMCELL Technologies, cat #ST-05793) comprising NeuroCult SM1 Neuronal Supplement, N2 Supplement-A, 20 ng/mL BDNF, 20 ng/mL GDNF, 1 mM dibutyryl cAMP, and 200 nM ascorbic acid. Half of the culture medium was replaced on day 2 and day 4 after the induction of differentiation.
The test compound was diluted with the culture medium so as to be twice the final concentration, and an equal volume of the twice-concentrated solution was added to each well when half of the culture medium was replaced on day 4 after induction of differentiation.
(§2) (2) Evaluation of the Amount of α-Synuclein Aggregate
From the neurospheroid 9 days after the induction of differentiation, proteins were extracted with a TBS solution containing 1% TritionX-100, and the extracted proteins were subjected to a protein analysis with Simple Western system (Protein Simple, Inc., cat #SM-W008) using an α-synuclein antibody (Thermo Fisher Scientific Inc., cat #AHB0261) to measure the amount of the α-synuclein aggregate.
Assuming that the amount of the aggregate in the neurospheroid added with a DMSO solution is 100%, the amount of the aggregate in the neurospheroid added with each test compound was evaluated.

Experiment [2] concerns α-synuclein aggregate. The experiment in a line: Test 3: reducing the accumulation of α-synuclein aggregate in neurospheroid from PLA2G6 mutant human iPS cells. As to conditions: compound added day 10, measured day 15, DMSO = 100%. The protocol:
Test 3: Evaluation of Reducing the Accumulation of α-Synuclein Aggregate with Neurospheroid Prepared from Human iPS Cells with a Mutation in PLA2G6 Gene
as §1
(§3) Neural stem cells were induced from PLA2G6 gene mutant iPS cells with PSC Neuronal Induction Medium (Thermo Fisher Scientific Inc., cat #A1647801). Neurospheroid was prepared from the induced neural stem cells by three-dimensional culture system, and preserved with BrainPhys Neuronal Medium (STEMCELL Technologies, cat #ST-05793) comprising NeuroCult SM1 Neuronal Supplement, N2 Supplement-A, 20 ng/mL BDNF, 20 ng/mL GDNF, 1 mM dibutyryl cAMP, and 200 nM ascorbic acid. Half of the culture medium was replaced every 3 or 4 days after the induction of differentiation.
The test compound was diluted with the culture medium so as to be twice the final concentration, and an equal volume of the twice-concentrated solution was added to each well when half of the culture medium was replaced on day 10 after induction of differentiation.
as §2
From the neurospheroid 15 days after the induction of differentiation, proteins were extracted with a TBS solution containing 1% TritionX-100, and the extracted proteins were subjected to a protein analysis with Simple Western system (Protein Simple, Inc., cat #SM-W008) using an α-synuclein antibody (Thermo Fisher Scientific Inc., cat #AHB0261) to measure the amount of the α-synuclein aggregate.
(§4) The amount of the aggregate in the neurospheroid added with each test compound was measured. Assuming that the amount of the aggregate in the neurospheroid added with a DMSO solution is 100%, the amount of the aggregate in the test samples was evaluated.

In experiment [3] the test system is α-synuclein aggregate. Kind of experiment: Test 5: suppressing the accumulation of α-synuclein aggregate in dopamine neurospheroid from PLA2G6 mutant human iPS cells. The conditions noted are these: compound added day 21, measured day 26, DMSO = 100%. The protocol:
Test 5: Evaluation of Suppressing the Accumulation of α-Synuclein Aggregate with Dopamine Neurospheroid Prepared From Human iPS Cells with a Mutation in PLA2G6 Gene
as §1
as §3, with “Dopaminergic progenitor” for “Neural stem”, “dopaminergic neuron differentiation kit” for “PSC Neuronal Induction Medium”, “#A3147701). Dopamine neurospheroid” for “#A1647801). Neurospheroid”, “dopaminergic progenitor” for “neural stem”
The test compound was diluted with the culture medium so as to be twice the final concentration, and an equal volume of the twice-concentrated solution was added to each well when half of the culture medium was replaced on day 21 after induction of differentiation.
as §2
From the dopamine neurospheroid 26 days after the induction of differentiation, proteins were extracted with a TBS solution containing 1% TritionX-100, and the extracted proteins were subjected to a protein analysis with Simple Western system (Protein Simple, Inc., cat #SM-W008) using an α-synuclein antibody (Thermo Fisher Scientific Inc., cat #AHB0261) to measure the amount of the α-synuclein aggregate.
as §4

For experiment [4], the system named is α-synuclein aggregate. The experiment in a line: Test 11: reducing the accumulation of α-synuclein aggregate in dopamine neurospheroid from GBA1 mutant human iPS cells. As to conditions: compound added day 40, measured day 44, DMSO = 100%. The protocol: Test 11: Evaluation of Reducing the Accumulation of α-Synuclein Aggregate with Dopamine Neurospheroid Prepared From Human iPS Cells with a Mutation in GBA1 Gene
as §1
Dopaminergic progenitor cells were induced from GBA1 gene mutant iPS cells with dopaminergic neuron differentiation kit (Thermo Fisher Scientific Inc., cat #A3147701). Dopamine neurospheroid was prepared from the induced dopaminergic progenitor cells by three-dimensional culture system, and preserved with BrainPhys Neuronal Medium (STEMCELL Technologies, cat #ST-05793) comprising NeuroCult SM1 Neuronal Supplement, N2 Supplement-A, 20 ng/mL BDNF, 20 ng/mL GDNF, 1 mM dibutyryl cAMP, and 200 nM ascorbic acid. Half of the culture medium was replaced every 3 or 4 days.
The test compound was diluted with the culture medium so as to be twice the final concentration, and an equal volume of the twice-concentrated solution was added to each well when half of the culture medium was replaced on day 40 after induction of differentiation.
as §2
From the dopamine neurospheroid 44 days after the induction of differentiation, proteins were extracted with a TBS solution containing 1% TritionX-100, and the extracted proteins were subjected to a protein analysis with Simple Western system (Protein Simple, Inc., cat #SM-W008) using an α-synuclein antibody (Thermo Fisher Scientific Inc., cat #AHB0261) to measure the amount of the α-synuclein aggregate.
as §4

For the compound `CCC1(C(=O)/N=c2\ccccn2C)COC1` [Example 1, 3-Ethyl-N-[(2E)-1-methylpyridin-2(1H)-ylidene]oxetane-3-carboxamide], in the experiment on α-synuclein aggregate [1], the activity at 0.1 µM is 20% and the activity at 1 µM was determined as 21%. Moreover, in the experiment on α-synuclein aggregate [2], the “Amount of aggregate (%) 100 nM” value is 23% and the “Amount of aggregate (%) 1000 nM” value is recorded as 18%. Further, in the experiment with α-synuclein aggregate [3], the “Amount of aggregate (%) 100 nM” value came out at 9% and the “Amount of aggregate (%) 1000 nM” value was determined as 13%. In addition, in the experiment on α-synuclein aggregate [4], the “Amount of aggregate (%) 100 nM” value is on record as 12% and the “Amount of aggregate (%) 1000 nM” value is reported as 19%.
`Cn1cccc/c1=N\C(=O)C1(C)COC1` [Example 2, 3-methyl-N-[(2E)-1-methylpyridin-2(1H)-ylidene]oxetane-3-carboxamide]: in the experiment with α-synuclein aggregate [1], the activity at 0.1 µM amounted to 31% and the activity at 1 µM came to 38%. In the experiment with α-synuclein aggregate [2], the “Amount of aggregate (%) 100 nM” value is listed as 36% and the “Amount of aggregate (%) 1000 nM” value was determined as 35%. Moreover, in the experiment on α-synuclein aggregate [3], the “Amount of aggregate (%) 100 nM” value is 24% and the “Amount of aggregate (%) 1000 nM” value is reported as 3%. Moreover, in the experiment on α-synuclein aggregate [4], the “Amount of aggregate (%) 100 nM” value is 42% and the “Amount of aggregate (%) 1000 nM” value is given as 37%.
Take `CCn1cccc/c1=N\C(=O)C1(C)COC1` [Example 3, N-[(2E)-1-ethylpyridin-2(1H)-ylidene]-3-methyloxetane-3-carboxamide]: in the experiment with α-synuclein aggregate [1], the activity at 0.1 µM worked out at 35% and the activity at 1 µM was 74%. Further, in the experiment on α-synuclein aggregate [2], the “Amount of aggregate (%) 100 nM” value came to 19% and the “Amount of aggregate (%) 1000 nM” value was determined as 70%. Also, in the experiment with α-synuclein aggregate [3], the “Amount of aggregate (%) 100 nM” value is on record as 28% and the “Amount of aggregate (%) 1000 nM” value is given as 78%. For the same compound, in the experiment on α-synuclein aggregate [4], the “Amount of aggregate (%) 100 nM” value stood at 44% and the “Amount of aggregate (%) 1000 nM” value stood at 39%.
In the case of `CCC1(C(=O)/N=c2\cc(OC)ccn2C)COC1` [Example 9, 3-ethyl-N-[(2E)-4-methoxy-1-methylpyridin-2(1H)-ylidene]oxetane-3-carboxamide], in the experiment with α-synuclein aggregate [1], the activity at 0.1 µM amounted to 4% and the activity at 1 µM was 3%. In the experiment on α-synuclein aggregate [2], the “Amount of aggregate (%) 100 nM” value was 52% and the “Amount of aggregate (%) 1000 nM” value worked out at 37%. Moreover, in the experiment with α-synuclein aggregate [3], the “Amount of aggregate (%) 100 nM” value is on record as 5% and the “Amount of aggregate (%) 1000 nM” value is 28%.
In the case of `CCC1(C(=O)/N=c2\ccc(F)cn2C)COC1` [Example 31, 3-ethyl-N-[(2E)-5-fluoro-1-methylpyridin-2(1H)-ylidene]oxetane-3-carboxamide], in the experiment on α-synuclein aggregate [1], the activity at 0.1 µM is 25% and the activity at 1 µM came out at 53%. In the experiment with α-synuclein aggregate [2], the “Amount of aggregate (%) 100 nM” value is listed as 23% and the “Amount of aggregate (%) 1000 nM” value is 19%. For the same compound, in the experiment with α-synuclein aggregate [3], the “Amount of aggregate (%) 100 nM” value is listed as 13% and the “Amount of aggregate (%) 1000 nM” value is given as 12%.
Regarding `COc1c/c(=N\C(=O)C2(C)CN(C)C2)n(C)cc1Cl` [Example 60, N-[(2E)-5-chloro-4-methoxy-1-methylpyridin-2(1H)-ylidene]-1,3-dimethylazetidine-3-carboxamide], in the experiment on α-synuclein aggregate [1], the activity at 0.1 µM amounted to 44% and the activity at 1 µM was determined as 15%. Further, in the experiment on α-synuclein aggregate [2], the “Amount of aggregate (%) 100 nM” value turned out to be 9% and the “Amount of aggregate (%) 1000 nM” value was found to be 9%. Moreover, in the experiment on α-synuclein aggregate [3], the “Amount of aggregate (%) 100 nM” value was found to be 21% and the “Amount of aggregate (%) 1000 nM” value stood at 15%.
`Cn1cccc/c1=N\C(=O)C1CCNC1` (centres unmarked) [Example 67]: in the experiment with α-synuclein aggregate [1], the activity at 0.1 µM was 62% and the activity at 1 µM stood at 72%.
The like results for `Cn1cccc/c1=N\C(=O)C1CCNCC1` [Example 68] were, in that order, 80% and 31%.
For `CN1CC(C(=O)/N=c2\ccccn2C)C1` [Example 69], in the experiment with α-synuclein aggregate [1], the activity at 0.1 µM turned out to be 89% and the activity at 1 µM was 41%.
Take `CN1CCC(C(=O)/N=c2\ccccn2C)C1` (centres unmarked) [Example 70]: in the experiment on α-synuclein aggregate [1], the activity at 0.1 µM was determined as 77% and the activity at 1 µM worked out at 31%.
In the same order, the values of `CC(C)N1CC(C)(C(=O)/N=c2\ccccn2C)C1` [Example 71, 3-Methyl-N-[(2E)-1-methylpyridin-2(1H)-ylidene]-1-(propan-2-yl)azetidine-3-carboxamide] are 64% and 73%.
In the same order, the values of `Cn1cccc/c1=N\C(=O)C1(C)CN(C2CC2)C1` [Example 72, 1-Cyclopropyl-3-methyl-N-[(2E)-1-methylpyridin-2(1H)-ylidene]azetidine-3-carboxamide] are 64% and 75%.
`Cn1cccc/c1=N\C(=O)C1(C)CN(CC(F)(F)F)C1` [Example 73, 3-Methyl-N-[(2E)-1-methylpyridin-2(1H)-ylidene]-1-(2,2,2-trifluoroethyl)azetidine-3-carboxamide]: in the experiment with α-synuclein aggregate [1], the activity at 0.1 µM is 79% and the activity at 1 µM was found to be 76%.
In the same order, the values of `Cn1cccc/c1=N\C(=O)N1CCOCC1(C)C` [Example 74, 3,3-Dimethyl-N-[(2E)-1-methylpyridin-2(1H)-ylidene]morpholine-4-carboxamide] are 30% and 64%.
The like results for `Cn1cccc/c1=N\C(=O)N1CCOC(C)(C)C1` [Example 75, 2,2-Dimethyl-N-[(2E)-1-methylpyridin-2(1H)-ylidene]morpholine-4-carboxamide] were, in that order, 49% and 63%.
In the same order, the values of `Cn1cccc/c1=N\C(=O)N1C[C@H]2CC[C@@H](C1)O2` [Example 76] are 44% and 67%.
